# Reference: US20240041042A1, “1-(PYRIDYL)-5-AZINYLPYRAZOLE DERIVATIVES, AND THEIR USE FOR CONTROL OF UNDESIRED PLANT GROWTH” (Bayer Aktiengesellschaft, priority 2020, published 2024)
# Like-named read-outs stand apart in the source and are kept apart here.
# How the values were obtained:
# Assay type in all cases: in vivo
# [1] = test system: Echinochloa crus-galli (ECHCG); experiment: Post-emergence herbicidal action against ECHCG
# Summary of the method: (§1)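 Doses of 320 g/ha or lower, suffixes a, b and c marking different dosages, were applied post-emergence at the one-leaf stage in 600 l/ha water with 0.5% additive. Damage was assessed visually after about 3 weeks in the greenhouse.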
# Avena fatua (AVEFA) [2] = experiment: Pre-emergence herbicidal action against AVEFA; details: 320 g/ha, visual scoring after about 3 weeks vs untreated controls
# Summary of the method: (§2)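 Application rates ran to 320 g/ha or lower, with several dosages tested on the same weeds. The compound, as wettable powder or emulsion concentrate, is sprayed pre-emergence onto soil over sown seeds; greenhouse growth follows, and effect is rated visually after roughly 3 weeks.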
# [3] = test system: Pharbitis purpurea (PHBPU); experiment: Post-emergence herbicidal action against PHBPU
# Summary of the method: as §1
# [4] = test system: Echinochloa crus-galli (ECHCG); experiment: Pre-emergence herbicidal action against ECHCG
# Summary of the method: as §2
# Setaria viridis (SETVI) [5] = experiment: Post-emergence herbicidal action against SETVI
# Summary of the method: as §1
# [6] = test system: Pharbitis purpurea (PHBPU); experiment: Pre-emergence herbicidal action against PHBPU
# Summary of the method: as §2
# [7] = test system: Matricaria inodora (MATIN); experiment: Pre-emergence herbicidal action against MATIN
# Summary of the method: as §2
# [8] = test system: Alopecurus myosuroides (ALOMY); experiment: Pre-emergence herbicidal action against ALOMY; details: scored visually after about 3 weeks, 100% = plants have died
# Summary of the method: as §2
# [9] = test system: Amaranthus retroflexus (AMARE); experiment: Pre-emergence herbicidal action against AMARE; details: visual scoring after about 3 weeks vs untreated controls
# Summary of the method: as §2
# [10] = test system: Verconica persica (VERPE); experiment: Post-emergence herbicidal action against VERPE
# Summary of the method: as §1
# Oryza sativa (ORYSA) = details: crop plant compatibility
# Summary of the method: (§3)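 Effects were read visually as % versus untreated controls (0% = no effect, 100% = death) about 3 weeks post-treatment. Application was a post-emergence spray at the one-leaf stage of WP/EC formulations with 0.5% additive at 600 l/ha. Different dosages are denoted a, b and c.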
# [11] = test system: Verconica persica (VERPE); experiment: Pre-emergence herbicidal action against VERPE
# Summary of the method: as §2
# [12] = test system: Digitaria sanguinalis (DIGSA); experiment: Post-emergence herbicidal action against DIGSA; details: visual rating about 3 weeks after treatment
# Summary of the method: as §1
# Viola tricolor (VIOTR) [13] = experiment: Post-emergence herbicidal action against VIOTR
# Summary of the method: as §1
# [14] = test system: Digitaria sanguinalis (DIGSA); experiment: Pre-emergence herbicidal action against DIGSA
# Description: Seeds of monocotyledonous and dicotyledonous weed plants and crop plants are placed in plastic or organic planting pots and covered with soil. The compounds of the invention, formulated in the form of wettable powders (WP) or as emulsion concentrates (EC), are then applied to the surface of the covering soil as aqueous suspension or emulsion with addition of 0.5% additive at a water application rate equivalent to 600 l/ha. After the treatment, the pots are placed in a greenhouse and kept under good growth conditions for the trial plants. After about 3 weeks, the effect of the preparations is scored visually in comparison with untreated controls as percentages. For example, 100% activity=the plants have died, 0% activity=like control plants.
# Tables A1 to A13 below show the effects of selected compounds of the general formula (I) on various harmful plants and at an application rate corresponding to 320 g/ha or lower, which were obtained by the experimental procedure mentioned above. The appendices “a”, “b” and “c” give differentiation by dosage used with otherwise the same harmful plants tested.
# Viola tricolor (VIOTR) [15] = experiment: Pre-emergence herbicidal action against VIOTR
# Summary of the method: as §2
# [16] = test system: Matricaria inodora (MATIN); experiment: Post-emergence herbicidal action against MATIN
# Summary of the method: as §1
# Lolium rigidum (LOLRI) = experiment: Pre-emergence herbicidal action against LOLRI; details: dosage 320 g/ha
# Summary of the method: as §2
# Setaria viridis (SETVI) [17] = experiment: Pre-emergence herbicidal action against SETVI
# Summary of the method: as §2
# Avena fatua (AVEFA) [18] = experiment: Post-emergence herbicidal action against AVEFA; details: visual rating about 3 weeks after treatment
# Summary of the method: as §1
# [19] = test system: Alopecurus myosuroides (ALOMY); experiment: Post-emergence herbicidal action against ALOMY; details: 80 g/ha, visual rating about 3 weeks after treatment vs untreated controls (100% = plants have died, 0% = like control plants)
# Summary of the method: as §1
# Zea mays (ZEAMX) = test system: Zea mays (ZEAMX)
# Summary of the method: as §3
# [20] = test system: Polygonum convolvulus (POLCO); experiment: Pre-emergence herbicidal action against POLCO
# Summary of the method: as §2
# [21] = test system: Abutilon theophrasti (ABUTH); experiment: Post-emergence herbicidal action against ABUTH; details: 320 g/ha, visual rating about 3 weeks after treatment vs untreated controls (100% = plants have died, 0% = like control plants)
# Summary of the method: as §1
# [22] = 80 g/ha, effect in comparison to untreated controls
# [23] = 80 g/ha, visual scoring after about 3 weeks vs untreated controls
Post-emergence action against ORYSA in % (Oryza sativa (ORYSA); [22]) [%],SMILES,Post-emergence action against ECHCG in % ([1]; dosage 80 g/ha) [%],Post-emergence action against ECHCG in % ([1]; dosage 320 g/ha) [%],Pre-emergence action against AVEFA in % (Avena fatua (AVEFA) [2]) [%],Post-emergence action against PHBPU in % ([3]; dosage 320 g/ha) [%],Pre-emergence action against ECHCG in % ([4]; dosage 80 g/ha) [%],Pre-emergence action against ECHCG in % ([4]; dosage 320 g/ha) [%],Post-emergence action against SETVI in % (Setaria viridis (SETVI) [5]; dosage 320 g/ha) [%],Pre-emergence action against MATIN in % ([7]; dosage 320 g/ha) [%],Pre-emergence action against ALOMY ([8]; 320 g/ha) [%],Pre-emergence action against AMARE in % ([9]; 320 g/ha) [%],Pre-emergence action against VERPE in % ([11]; dosage 320 g/ha) [%],"Pre-emergence action against DIGSA in % [14, 23] [%]",Pre-emergence action against DIGSA in % ([14]; dosage 320 g/ha) [%],"Pre-emergence action against VIOTR in % (Viola tricolor (VIOTR) [15]; 320 g/ha, Viola tricolor) [%]",Pre-emergence action against VIOTR in % (Viola tricolor (VIOTR) [15]; dosage 80 g/ha) [%],Post-emergence action against MATIN in % ([16]; dosage 80 g/ha) [%],Pre-emergence action against LOLRI in % (Lolium rigidum (LOLRI)) [%],Pre-emergence action against SETVI in % (Setaria viridis (SETVI) [17]; dosage 80 g/ha) [%],Pre-emergence action against SETVI in % (Setaria viridis (SETVI) [17]; dosage 320 g/ha) [%],further results
10,O=C(O)COc1nn(-c2nc(F)ccc2F)c(-c2cncc(F)c2)c1Cl [Example I-231],80,90,90,80,90,90,80,90,90,90,80,90,100,100,100,80,80,90,90,"Pre-emergence action against PHBPU in % ([6]; dosage 80 g/ha): 90%; Pre-emergence action against PHBPU in % ([6]; dosage 320 g/ha): 90%; Pre-emergence action against MATIN in % ([7]; dosage 80 g/ha): 90%; Post-emergence action against VERPE in % ([10]; 320 g/ha, VERPE): 80%; Pre-emergence action against VERPE in % ([11]; dosage 80 g/ha): 80%; Post-emergence action against DIGSA in % ([12]; 320 g/ha): 90%; Post-emergence action against VIOTR in % (Viola tricolor (VIOTR) [13]; 320 g/ha): 80%; Post-emergence action against MATIN in % ([16]; dosage 320 g/ha): 80%"
20,COCCOC(=O)COc1nn(-c2ncccc2F)c(-c2ccc(F)nc2)c1Br [Example I-29],80,,90,,,100,,100,100,100,90,100,100,100,90,90,100,90,100,"Post-emergence action against AVEFA in % (Avena fatua (AVEFA) [18]; 80 g/ha): 80%; Post-emergence action against SETVI in % (Setaria viridis (SETVI) [5]; dosage 80 g/ha): 80%; Post-emergence action against ALOMY in % [19]: 100%; Pre-emergence action against ALOMY ([8]; 80 g/ha): 90%; Pre-emergence action against AMARE in % ([9]; 80 g/ha): 90%; Post-emergence action against VERPE in % ([10]; dosage 80 g/ha): 80%; Post-emergence action against ZEAMX in % (crop plant compatibility) (Zea mays (ZEAMX); 20 g/ha, ZEAMX, effect in comparison to untreated controls): 10%; Post-emergence action against ZEAMX in % (Zea mays (ZEAMX); crop plant compatibility, 80 g/ha, effect vs untreated controls): 20%; Post-emergence action against ORYSA in % (Oryza sativa (ORYSA); 20 g/ha, effect vs untreated controls): 10%; Pre-emergence action against POLCO in % ([20]; dosage 320 g/ha): 90%; Post-emergence action against DIGSA in % ([12]; 80 g/ha): 90%"
10,COC(=O)COc1nn(-c2nc(F)ccc2F)c(-c2cncc(F)c2)c1Cl [Example I-216],80,80,,80,80,100,80,90,90,90,90,90,100,100,100,80,80,80,100,Post-emergence action against PHBPU in % ([3]; dosage 80 g/ha): 80%; Post-emergence action against AVEFA in % (Avena fatua (AVEFA) [18]; 320 g/ha): 80%; Pre-emergence action against PHBPU in % ([6]; dosage 80 g/ha): 90%; Pre-emergence action against PHBPU in % ([6]; dosage 320 g/ha): 90%; Pre-emergence action against MATIN in % ([7]; dosage 80 g/ha): 90%; Pre-emergence action against AMARE in % ([9]; 80 g/ha): 90%; Pre-emergence action against POLCO in % ([20]; dosage 80 g/ha): 90%; Pre-emergence action against POLCO in % ([20]; dosage 320 g/ha): 90%; Post-emergence action against ABUTH in % [21]: 80%; Post-emergence action against DIGSA in % ([12]; 80 g/ha): 80%; Post-emergence action against DIGSA in % ([12]; 320 g/ha): 80%; Post-emergence action against VIOTR in % (Viola tricolor (VIOTR) [13]; 80 g/ha): 80%; Post-emergence action against VIOTR in % (Viola tricolor (VIOTR) [13]; 320 g/ha): 80%; Post-emergence action against MATIN in % ([16]; dosage 320 g/ha): 80%
